Measurements as given in patent publication US12486218B2, “Compounds advantageous in the treatment of central nervous system diseases and disorders” (AurimMed Pharma, Inc., priority 2008, dated 2025).

Legend:
mice [1] = test: 6 Hz (minimal clonic seizure) model, mice i.p.; format: in vivo; conditions: for ED50: Mus musculus, ip
rats [2] = test: MES test, rats p.o.; format: in vivo
mice [3] = test: Effects observed in mice after i.p. injection (CNS stimulation, diarrhea); format: in vivo
Description: In addition, two further tertiary amide compounds, BJ and BT, produced diarrhea in the mice 30 minutes after i.p. injection of 100 mg/kg of each.

mice [4] = test: Maximal Electroshock Seizure (MES) test, mice i.p.; format: in vivo; conditions: for ED50: Mus musculus, ip
rats [5] = test: s.c. MET test, rats p.o.; format: in vivo; conditions: Rattus norvegicus, p.o.
mice [6] = test: Audiogenic Seizure susceptible (AGS) test, mice i.p.; format: in vivo; conditions: Mus musculus, ip
mice [7] = test: Subcutaneous Metrazol Seizure threshold (s.c. MET) test, mice i.p.; format: in vivo; conditions: Mus musculus
mice [8] = test: Minimal motor impairment (MID50), mice i.p.
Description: (§1) The animal testing was performed according to methods known in the relevant art.

rats [9] = test: Pilocarpine-induced Status Epilepticus in Rats (prevention; intervention @ 30 min); conditions: Rattus norvegicus, read-out: Prevention, Protection
Description: The animal testing was performed using the protocols developed in the Anticonvulsant Screening Program (ASP) at the National Institute of Neurological Disorders and Stroke (NINDS), National Institutes of Health (NIH).

in vivo = conditions: mouse, ip
Description: as §1

C3A hepatocyte cells = test: ACTIVTox LDH release assay; format: cell-based
Description: Compounds A, I, H, and F were tested by Stem Cell Innovations, Inc. (Houston, TX) in their ACTIVTox® Human Liver Cell-based assays (using C3A hepatocyte cells). Specifically, the compounds were tested in the LDH release assay, which determines the release of Lactate DeHydrogenase (an indicator of cell death) at various concentrations of test compound.
A concentration of 100 µM of test compound is a much higher level of exposure to liver cells than would ever be expected under physiological conditions. Therefore, using 100 μM as a standard test concentration (for comparative purposes), the ratio of the absorbance (which measures the level of LDH release) resulting from the presence of the test compound versus the negative control is a value known as the “average (or mean) fold control” (Average Fold Control=Average of Absorbance/Average of Negative Control).

rats [10] = test: Hippocampal Kindled Rats model; format: in vivo; conditions: Rattus norvegicus
rats [11] = test: Minimal motor impairment (MID50), rats p.o.; format: in vivo
mice [12] = test: Corneal kindled mouse model; format: in vivo; conditions: for ED50: Mus musculus
[13] = system: rat dopaminergic N27 cells; test: N27 protection assay against oxidative stress (H2O2 or MPP+; MTT and LDH); format: cell-based; conditions: drug 24 hours before 200 μM H2O2 or 640 μM MPP+
Source text: FIGS. 20A-25D data are shown illustrating neuroprotective and neuroregenerative effects observed in rat dopaminergic N27 cells. Rat dopaminergic N27 cells are commonly used in in vitro and in vivo model systems for studying Parkinson's disease. Parkinson's disease is a neurodegenerative disorder of the central nervous system that affects more than 6 million people worldwide. The motor symptoms of Parkinson's disease result from the death of dopamine generating cells in the substantia nigra, a region of the midbrain.
The N27 rat dopaminergic neuron cell line was harvested from E12 rat mesencephalic tissue and was transfected with SV40 to immortalize the cell line. The N27 cell line, when injected into the striata of 6-hydroxydopamine-lesioned rats (an animal model of PD) caused a time-dependent improvement in neurological deficits. This immortalized cell line has been carefully characterized in studies of dopamine biosynthesis, neurotoxicity and used as a dopaminergic neuron model studies.
The N27 in vitro Parkinson's disease model included a test of cell viability and cell toxicity in response to exposure to oxidative stress (e.g., either 200 μM H2O2 or 640 μM MPP+).
Cell viability was tested using the MTT assay. The MTT assay is a colorimetric analysis based on the activities of mitochondrial NAD(P)H-dependent cellular oxidoreductase enzymes. These enzymes are capable of reducing the tetrazolium dye, MTT [3-(4,5-dimethylthiazol-2-yl)-2,5-diphenyltetrazolium] bromide, to an insoluble formazan (purple). […] More viable cells equal more accumulation of the insoluble formazan dye.
Cell toxicity was tested using the […] (LDH) assay. Cells that are stressed secrete LDH. In general, the more cells are stressed, the LDH they secrete into their media. The LDH assay is a reliable colorimetric assay to measure quantitatively the […] (LDH) that is released into the cell culture media from damaged cells as a biomarker for cytotoxicity and cytolysis.
FIGS. 20A-25D present data from two types of assays: protection and recovery assays. In the protection assays, the drug candidate was applied to the cells at various concentrations for 24 hours, followed by the exposure to oxidative stress (either 200 μM H2O2 or 640 μM MPP+) for measuring neuroprotective effect. H2O2 provides a broad measure of oxidative stress, while MPP+ gives a more specific oxidative stress to dopaminergic neurons.
The protection assay results are shown in panels A-C of FIGS. 20-25 In the recovery assays, the cells were first damaged by exposure to H2O2 and then various concentrations of the drug were applied to the cells. The results for the recovery assays are shown the D panels of FIGS. 20-25.

[14] = system: type II SMA fibroblasts (GM03813); test: SMN protein localization, gem counting in type II SMA fibroblasts; format: cell-based; conditions: 100 nM-10 μM, 5 days
Description: To validate the SMN2 promoter and exon 7 screens, the effects of compounds H, H (acid form), AY, F, BX, and BY were evaluated on the basis of expression and localization of SMN protein in type II SMA fibroblasts (GM03813). In a normal cell, SMN protein localized within the nucleus to discreet foci known as gems. In SMN-deficient SMA cells, the number of gems is greatly diminished. Although the function of gems is unknown, it is believed that they are somehow involved in the snRNP assembly function of SMN. Gem counting can, therefore, be considered an assay for SMN function.
GM03813 fibroblasts were treated with different doses (100 nM-10 μM) of compounds H, H (acid form), AY, F, BX, and BY for 5 days. SMN immunostaining was then completed on these cells and the number of gems was counted in 100 randomly-selected nuclei. […] In fact, the gem counts at the highest dose of compound H approach those observed for carrier fibroblasts (GM03814). When compared against treatment with 1 μM D157495—a D156844 derivative, all of the compounds tested performed as well as or, even better than D157495.

mice [15] = test: Mouse formalin pain model; format: in vivo; conditions: 76 mg/kg i.p., at 0.5 hours

For `CCN(C)C(=O)CC(C)c1ccc(OC(F)(F)F)cc1` (stereo not drawn) [BE, N-Ethyl-N-methyl-3-(4-trifluoromethoxy-phenyl)-butyramide], the “6 Hz (32 mA), fraction of animals” value (mice [1]; mice i.p., 100 mg/kg @ 0.5 hr) was 2/4 @ 0.5 hr,, the “activity in the MES test” value (rats [2]; at 30 mg/kg) was “activity” and the CNS-stimulating effect observed (mice [3]; mice, 300 mg/kg i.p., 30 minutes after injection) was “tremors”. For the same compound, the “MES, fraction of animals” value (mice [4]; mice i.p., 100 mg/kg @ 0.5 hr) was 1/3 @ and the “activity in the MES test” value (mice [4]; mice, at 100 mg/kg) was “activity”.

Work on `CC(CC(N)=O)c1ccc(C(F)(F)F)cc1` (stereo not drawn) [F, 3-[4-(trifluoromethyl)-phenyl]butyramide] yielded an ED50 (rats [5]) greater than 250 mg/kg, an ED50 (mice [6]; mice) of 41.3 mg/kg and an ED50 (mice [6]; mice i.p., @ 2.0 hrs) of 41.3 mg/kg. For the same compound, the ED50 (mice [7]; mice i.p., @ 1.0 hr) was 85.5 mg/kg, the ED50 (mice [7]; mice, i.p.) was 85.5 mg/kg and the “MID50 (TD50)” value (mice [8]; mice i.p., @ 0.25 hr) was 208.37. The “MID50 (median minimal motor impairment dose)” value (mice [8]; mice, i.p.) was 208.37 mg/kg, the responders at 65 mg/kg (rats [9]) was 14% and the ED50 (mice [1]; mice i.p., @ 0.5 hrs, read-out: 6 Hz (32 mA) ED50) was 80.8 mg/kg. For the same compound, the ED50 (mice [1]; mice, i.p., read-out: 6 Hz ED50) was 80.8 mg/kg, the ED50 (rats [2]; Rattus norvegicus, po) was 26.4 mg/kg and the TD50 (in vivo) was greater than 200 mg/kg. The “LDH release, mean fold control” value (C3A hepatocyte cells; at 100 μM, C3A hepatocyte cells, value below 1.75 = no cyto- or hepatotoxic activity) was 1.47, the “cyto- or hepatotoxicity, ACTIVTox data” value (C3A hepatocyte cells; at physiologically relevant concentrations (i.e., <100 µM)) was “not cyto- or hepatotoxic” and the ED50 (rats [10]) was 29 mg/kg. For the same compound, the MID50 (rats [11]) was >500 (none observed) mg/kg, the ED50 (mice [12]; ip, mice i.p., @1.0 hrs, read-out: Corneal Kindled ED50) was 60.6 mg/kg and the ED50 (mice [12]; read-out: ED50, corneal kindled mouse model) was 60.6 mg/kg. For the same compound, the “seizure score, corneal kindled mouse model” value (mice [12]; at 100 mg/kg) was “zero”, the “neuroprotective effect against H2O2 and MPP+ oxidative stresses (MTT and LDH assays)” value [13] was “statistically significant, dose-dependent neuroprotection” and the ED50 (mice [4]; mice) was 85.3 mg/kg. For the same compound, the ED50 (mice [4]; mice i.p., @ 2.0 hrs) was 85.3 mg/kg and the “gem counts (SMN immunostaining, 100 nuclei)” value [14] was “increase gem counts in a dose-dependent manner”.

In the case of `CC(CC(=O)N1CCCC(C(N)=O)C1)c1ccc(OC(F)(F)F)cc1` (stereo not drawn) [BT, 1-[3-(4-Trifluoromethoxy-phenyl)-butyryl]-piperidine-3-carboxylic acid amide], the “effect produced in the mice” value (mice [3]; 30 minutes after i.p. injection of 100 mg/kg) is reported as “diarrhea”.

With `C[C@@H](CC(N)=O)c1ccc(OC(F)(F)F)cc1` (single isomer, unassigned) [BY, S-(+)-3-(4-Trifluoromethoxy-phenyl)butyramide] the “pain response, acute phase” value (mice [15]) was 53 % of the control, the “pain response, inflammatory phase” value (mice [15]) was 24 % of the control and the “6 Hz (32 mA), fraction of animals” value (mice [1]; mice i.p., 100 mg/kg @ 0.25 hr) was 1/4. The “6 Hz (32 mA), fraction of animals” value (mice [1]; mice i.p., 100 mg/kg @ 0.5 hr) was 2/4, the TD50 at 0.25 hr (in vivo) was 104 mg/kg and the “neuroprotective effect against H2O2 and MPP+ oxidative stresses (MTT and LDH assays)” value [13] was “potent dose-dependent neuroprotective effects”. The “gem counts (SMN immunostaining, 100 nuclei)” value [14] was “increase gem counts in a dose-dependent manner”.
